This passage reports IC50 results from patent publication US20260042764A1, “COMPOSITIONS AND METHODS FOR INHIBITION OF KRAS” (TheRas, Inc., priority 2022, published 2026).

Assay [1] addresses T1, Avi-KRAS G12V (2-169) GTP/RAF1 RBD-3xFLAG (51-131) (Homo sapiens, UniProt P01116, G12V).
T1 construct: Avi-KRAS G12V (2-169)
Kind of assay: Raf1-KRAS G12V-GTP disruption HTRF assay (Biological Example 3). The class given is binding. As to conditions: KRAS G12V, GTP-loaded. The essentials: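 An HTRF assay measured disruption of 50 nM Avi-KRAS (2-169)-GTP (WT, G12C, G12D or G12V) bound to RAF1 RBD-3xFLAG (51-131). Buffer was Tris pH 7.5 with 5 mM MgCl2 and 10% DMSO. Compounds (30–0.005 μM, 3-fold, 10 points) were incubated 1 h at room temperature, and activity is given as % of DMSO.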
(In general: TR-FRET usually uses a lanthanide donor and a delayed reading to cut background.)

In assay [2] the target is T2, Avi-KRAS WT (1-169) GppNHp/RAF1 RBD-3xFLAG (52-151) (Homo sapiens, UniProt P01116).
T2 construct: Avi-KRAS WT (1-169)
T2 sequence (P01116 1-169 isoform P01116-2): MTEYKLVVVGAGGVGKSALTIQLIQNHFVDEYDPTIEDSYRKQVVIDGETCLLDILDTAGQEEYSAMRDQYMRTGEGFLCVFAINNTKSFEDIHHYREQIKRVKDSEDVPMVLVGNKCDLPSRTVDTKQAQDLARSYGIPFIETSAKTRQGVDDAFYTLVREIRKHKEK
Kind of assay: Raf1-KRAS WT-GppNHP disruption HTRF assay (Biological Example 1). Format: binding. As to conditions: KRAS WT-GppNHp/RAF1 RBD HTRF. The method, boiled down:
(§1)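 Read-out is HTRF signal of the KRAS–RAF1 RBD complex, reported as percentage of activity relative to DMSO (100%). Protein mix and detection reagents each incubated 1 h at room temperature with 700 rpm shaking. Buffer: 50 mM Tris pH 7.5, 100 mM NaCl, 5 mM MgCl2, 0.1% BSA, 0.01% Tween, 10% DMSO.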

Assay [3] addresses T3, Avi-KRAS G12R (1-169) GppNHp/RAF1 RBD-3xFLAG (52-151) (Homo sapiens, UniProt P01116, G12R).
T3 construct: Avi-KRAS G12R (1-169)
Kind of assay: Raf1-KRAS G12R-GppNHP disruption HTRF assay (Biological Example 1). Format: binding. As to conditions: KRAS G12R-GppNHp/RAF1 RBD HTRF. The essentials: as §1

The subject of a further assay is GP2d cells (KRAS G12D). Kind of assay: Cell-based pERK HTRF assay in GP2d cell (Biological Example 2). The note with it: GP2d, GP2d (KRAS G12D) cells. The method, boiled down:
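60 min compound, 0.25% DMSO, 9-pt half-log curve from 1 μM or 100 nM; DMEM/10% FBS.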

The target in assay [4] is T4, Avi-KRAS G12V (1-169) GppNHp/RAF1 RBD-3xFLAG (52-151) (Homo sapiens, UniProt P01116, G12V).
T4 construct: Avi-KRAS G12V (1-169)
T4 sequence (P01116 1-169 isoform P01116-2 G12V): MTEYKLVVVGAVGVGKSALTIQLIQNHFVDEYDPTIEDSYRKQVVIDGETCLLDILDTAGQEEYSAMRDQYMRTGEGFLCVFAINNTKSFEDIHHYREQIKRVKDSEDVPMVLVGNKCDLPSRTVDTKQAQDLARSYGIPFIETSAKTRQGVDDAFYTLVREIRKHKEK
Kind of assay: Raf1-KRAS G12V-GppNHP disruption HTRF assay (Biological Example 1). The note with it: KRAS G12V-GppNHp/RAF1 RBD HTRF. The class given is binding. The method, boiled down: as §1

T3 sequence (P01116 1-169 isoform P01116-2 G12R): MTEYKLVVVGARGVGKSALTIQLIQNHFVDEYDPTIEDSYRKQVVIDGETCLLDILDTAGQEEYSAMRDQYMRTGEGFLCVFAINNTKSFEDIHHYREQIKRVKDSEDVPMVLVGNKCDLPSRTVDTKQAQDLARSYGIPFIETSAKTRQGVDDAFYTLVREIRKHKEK
T1 sequence (P01116 2-169 isoform P01116-2 G12V): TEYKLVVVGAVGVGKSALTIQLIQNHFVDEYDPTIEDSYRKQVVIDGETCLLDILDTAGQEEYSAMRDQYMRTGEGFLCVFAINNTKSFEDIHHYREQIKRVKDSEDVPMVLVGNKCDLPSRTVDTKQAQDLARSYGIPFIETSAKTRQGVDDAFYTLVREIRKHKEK

Take `CCN(c1nc(OC[C@@]23CCCN2C[C@H](F)C3)nc2c(F)c(-c3ccc(F)c4sc(N)c(C#N)c34)c(C(F)(F)F)cc12)[C@H]1CCN(C(=O)c2ccon2)C1` (atropisomer, axis not shown) [Compound 554]: the IC50 – broadly, the concentration needed to halve the response being measured – in assay [1] was 0.1 to 1 µM; in assay [2], less than 0.1 µM; in assay [3] it was less than 0.1 µM; in the assay with GP2d cells (KRAS G12D), less than 0.1 µM; in the assay with GP2d cells (KRAS G12D) (pERK HTRF), less than 0.1 µM; in assay [4], less than 0.1 µM.

Turning to `CCN(c1nc(OC[C@@]23CCCN2C[C@H](F)C3)nc2c(F)c(-c3ccc(F)c4sc(N)c(C#N)c34)c(C(F)(F)F)cc12)[C@H]1C[C@H]2COC(=O)N2C1` (atropisomer, axis not shown; (aS)) [Compound 518, 2-amino-4-((S)-4-(ethyl((6S,7aS)-3-oxotetrahydro-1H,3H-pyrrolo[1,2-c]oxazol-6-yl)amino)-8-fluoro-2-(((2R,7aS)-2-fluorotetrahydro-1H-pyrrolizin-7a(5H)-yl)methoxy)-6-(trifluoromethyl)quinazolin-7-yl)-7-fluorobenzo[b]thiophene-3-carbonitrile], the IC50 in assay [1] was no more than 0.1 µM; in assay [2] it was less than 0.1 µM; in assay [3] it was less than 0.1 µM; with GP2d cells (KRAS G12D), less than 0.1 µM; in the assay with GP2d cells (KRAS G12D) (pERK HTRF), less than 0.1 µM; in assay [4], less than 0.1 µM.

Consider `CCN(c1nc(OC[C@@]23CCCN2C[C@H](F)C3)nc2c(F)c(-c3ccc(F)c4sc(N)c(C#N)c34)c(C(F)(F)F)cc12)[C@H]1C[C@H]2CN(C)C(=O)N2C1` (atropisomer, axis not shown; (aS)) [Compound 543, 2-amino-4-((S)-4-(ethyl((6S,7aS)-2-methyl-3-oxohexahydro-1H-pyrrolo[1,2-c]imidazol-6-yl)amino)-8-fluoro-2-(((2R,7aS)-2-fluorotetrahydro-1H-pyrrolizin-7a(5H)-yl)methoxy)-6-(trifluoromethyl)quinazolin-7-yl)-7-fluorobenzo[b]thiophene-3-carbonitrile], for which the IC50 in assay [1] was no more than 0.1 µM; in assay [2] it was less than 0.1 µM; in assay [3] it was less than 0.1 µM; in the assay with GP2d cells (KRAS G12D) it was less than 0.1 µM; with GP2d cells (KRAS G12D) (pERK HTRF), less than 0.1 µM; in assay [4] it was less than 0.1 µM.

Regarding `CCN(c1nc(OC[C@@]23CCCN2C[C@H](F)C3)nc2c(F)c(-c3ccc(F)c4sc(N)c(C#N)c34)c(C(F)(F)F)cc12)[C@H]1CCN(C(=O)C(C)C)C1` (single isomer, unassigned) [Compound 469], the IC50 in assay [1] is no more than 0.1 µM; in assay [2] it was less than 0.1 µM; in assay [3] it was less than 0.1 µM; with GP2d cells (KRAS G12D) it was less than 0.1 µM; with GP2d cells (KRAS G12D) (pERK HTRF) it was less than 0.1 µM; in assay [4], less than 0.1 µM.

For `Cc1c(C(=O)N(C)C)nn2c1CN(c1nc(OC[C@@]34CCCN3C[C@H](F)C4)nc3c(F)c(-c4ccc(F)c5sc(N)c(C#N)c45)c(C(F)(F)F)cc13)CC2` [Compound 501], the IC50 in assay [1] was 0.1 to 1 µM; in assay [2], 0.1 to 1 µM; in assay [3], less than 0.1 µM; in the assay on GP2d cells (KRAS G12D), less than 0.1 µM; in the assay on GP2d cells (KRAS G12D) (pERK HTRF), less than 0.1 µM; in assay [4], 0.1 to 1 µM.

For `CCN(c1nc(OC[C@@]23CCCN2C[C@H](F)C3)nc2c(F)c(-c3ccc(F)c4sc(N)c(C#N)c34)c(C(F)(F)F)cc12)[C@@H]1C[C@@H]2CCC(=O)N2C1` [Compound 511], the IC50 in assay [1] was 1 to 10 µM; in assay [2], 0.1 to 1 µM; in assay [3], 1 to 10 µM; in the assay on GP2d cells (KRAS G12D), less than 0.1 µM; with GP2d cells (KRAS G12D) (pERK HTRF), less than 0.1 µM; in assay [4], 0.1 to 1 µM.

`CCN(c1nc(OC[C@@]23CCCN2C[C@H](F)C3)nc2c(F)c(-c3ccc(F)c4sc(N)c(C#N)c34)c(C(F)(F)F)cc12)C1C[C@@H](C)N(C(=O)C2CC2)C1` (stereo partly drawn) [Compound 516]: the IC50 in assay [1] is 0.1 to 1 µM; in assay [2], 0.1 to 1 µM; in assay [3], less than 0.1 µM; in the assay on GP2d cells (KRAS G12D), less than 0.1 µM; in the assay on GP2d cells (KRAS G12D) (pERK HTRF) it was less than 0.1 µM; in assay [4], 0.1 to 1 µM.

In the case of `CN(C)C(=O)c1nn2c(c1Cl)CN(c1nc(OC[C@@]34CCCN3C[C@H](F)C4)nc3c(F)c(-c4ccc(F)c5sc(N)c(C#N)c45)c(C(F)(F)F)cc13)CC2` [Compound 517], the IC50 was 0.1 to 1 µM in assay [1]; 0.1 to 1 µM in assay [2]; less than 0.1 µM in assay [3]; less than 0.1 µM with GP2d cells (KRAS G12D); less than 0.1 µM with GP2d cells (KRAS G12D) (pERK HTRF); less than 0.1 µM in assay [4].

Turning to `CCN(c1nc(OC[C@@]23CCCN2C[C@H](F)C3)nc2c(F)c(-c3ccc(F)c4sc(N)c(C#N)c34)c(C(F)(F)F)cc12)[C@@H]1CC(=O)N(C)C1` [Compound 520], the IC50 is 0.1 to 1 µM in assay [1]; 0.1 to 1 µM in assay [2]; 0.1 to 1 µM in assay [3]; less than 0.1 µM with GP2d cells (KRAS G12D); less than 0.1 µM with GP2d cells (KRAS G12D) (pERK HTRF); 0.1 to 1 µM in assay [4].

Consider `CCN1C[C@@H](N(CC)c2nc(OC[C@@]34CCCN3C[C@H](F)C4)nc3c(F)c(-c4ccc(F)c5sc(N)c(C#N)c45)c(C(F)(F)F)cc23)CC1=O` [Compound 529, 2-amino-4-(4-(ethyl((S)-1-ethyl-5-oxopyrrolidin-3-yl)amino)-8-fluoro-2-(((2R,7aS)-2-fluorotetrahydro-1H-pyrrolizin-7a(5H)-yl)methoxy)-6-(trifluoromethyl)quinazolin-7-yl)-7-fluorobenzo[b]thiophene-3-carbonitrile], for which the IC50 in assay [1] is no more than 0.1 µM; in assay [2], less than 0.1 µM; in assay [3], less than 0.1 µM; in the assay on GP2d cells (KRAS G12D) it was less than 0.1 µM; in the assay on GP2d cells (KRAS G12D) (pERK HTRF), less than 0.1 µM; in assay [4] it was less than 0.1 µM.

For `CCN(c1nc(OC[C@@]23CCCN2C[C@H](F)C3)nc2c(F)c(-c3ccc(F)c4sc(N)c(C#N)c34)c(C(F)(F)F)cc12)[C@@H]1CC(=O)N(C2CC2)C1` [Compound 537], the IC50 is no more than 0.1 µM in assay [1]; less than 0.1 µM in assay [2]; less than 0.1 µM in assay [3]; less than 0.1 µM with GP2d cells (KRAS G12D); less than 0.1 µM with GP2d cells (KRAS G12D) (pERK HTRF); less than 0.1 µM in assay [4].
